In ChEMBL document CHEMBL5108073, “Evolution of Potential Antimitotic Stapled Peptides from Multiple Helical Peptide Stretches of the Tubulin Heterodimer Interface: Helix-Mimicking Stapled Peptide Tubulin Inhibitors” (J Med Chem, 2022):
Activity calls are given as the source filed them. No cut-off for these calls is given here. Numbered stars: 1 amine (or outer) side, 2 acyl side, 3 side chain; on linkers, the order of the positions; unused ones are H or OH. Bridge positions count the residues as written; N and C are the ends. Square brackets hold non-standard residues; d marks the D form. Peptide text beside a SMILES is read from it. Nle(6-ylidene) = O=C([C@H](CCCC=[*:3])N[*:1])[*:2]; Phe(4-Br) = N[C@@H](Cc1ccc(Br)cc1)C(=O)O; Phe(4-Cl) = N[C@@H](Cc1ccc(Cl)cc1)C(=O)O; Phe(4-F) = N[C@@H](Cc1ccc(F)cc1)C(=O)O; Phe(4-I) = N[C@@H](Cc1ccc(I)cc1)C(=O)O

Tests used:
[1] = tested on: MCF7; assay: Cytotoxicity against human MCF7 cells assessed as reduction in cell viability incubated for 24 hrs by MTT assay; format: functional, cell-based; conditions: MCF7, 24 h
[2] = molecular target: T1, Tubulin (Homo sapiens) (UniProt P68371+Q9H4B7+P0DPH7+P68366+Q13509+Q71U36+P04350+Q3ZCM7+P07437+P68363+Q9BQE3+Q6PEY2+Q13885+Q9BVA1+Q9BUF5); assay: Binding affinity to tubulin (unknown origin) assessed as association constant by SPR analysis; format: protein-complex assay
[3] = molecular target: Tubulin; assay: Binding affinity to tubulin (unknown origin) assessed as binding constant by SPR analysis; format: protein-complex assay, Homo sapiens
[4] = molecular target: Tubulin; assay: Binding affinity to tubulin (unknown origin) assessed as binding constant by ITC analysis; format: protein-complex assay, Homo sapiens
[5] = molecular target: T1, Tubulin (Homo sapiens); assay: Inhibition of tubulin polymerization (unknown origin) at 10 uM by turbidity assay; format: protein-complex assay
[6] = molecular target: T1, Tubulin (Homo sapiens); assay: Inhibition of tubulin polymerization (unknown origin) at 10 uM by DAPI staining based assay; format: protein-complex assay
[7] = molecular target: Tubulin; assay: Binding affinity to tubulin (unknown origin) assessed as binding constant by tryptophan quenching analysis; format: protein-complex assay, Homo sapiens
[8] = molecular target: T1, Tubulin (Homo sapiens); assay: Binding affinity to microtubule in human MCF7 cells at 20 uM after 2 hrs by Hoechst 33258 staining based fluorescence microscopy analysis; format: cell-based
[9] = molecular target: T1, Tubulin (Homo sapiens); assay: Induction of microtubule depolymerization in human MCF7 cells; format: cell-based
[10] = Drug uptake in human MCF7 cells at 4 uM incubated for 24 hrs by flow cytometry analysis; format: ADME, cell-based; conditions: mcf7, 24 h
[11] = tested on: MCF7; assay: Drug uptake in human MCF7 cells at 4 uM incubated for 24 hrs by fluorescence microscopic analysis; format: functional, cell-based
[12] = tested on: MCF7; assay: Induction of apoptosis in human MCF7 cells assessed as viable cells by annexin V FITC and propidium iodide staining based flow cytometry (reference value: 100 %); format: functional
[13] = tested on: MCF7; assay: Induction of apoptosis in human MCF7 cells assessed as early apoptotic cells by annexin V FITC and propidium iodide staining based flow cytometry (reference value: 0 %); format: functional
[14] = tested on: MCF7; assay: Induction of apoptosis in human MCF7 cells assessed as late apoptotic cells by annexin V FITC and propidium iodide staining based flow cytometry (reference value: 0 %); format: functional
[15] = tested on: MCF7; assay: Induction of apoptosis in human MCF7 cells assessed as necrotic cells by annexin V FITC and propidium iodide staining based flow cytometry (reference value: 0 %); format: functional
[16] = tested on: MCF7; assay: Induction of cell cycle arrest in human MCF7 cells assessed as accumulation of cells at G2/M phase; format: functional, cell-based
[17] = tested on: MCF7; assay: Induction of apoptosis in human MCF7 cells assessed as upregulation of p53 protein expression by Western blot analysis; format: functional, cell-based
[18] = tested on: MCF7; assay: Induction of apoptosis in human MCF7 cells assessed as upregulation of p21 protein expression by Western blot analysis; format: functional, cell-based
[19] = tested on: MCF7; assay: Induction of apoptosis in human MCF7 cells assessed as upregulation of Mad2 protein expression by Western blot analysis; format: functional, cell-based
[20] = tested on: MCF7; assay: Induction of apoptosis in human MCF7 cells assessed as upregulation of BubR1 protein expression by Western blot analysis; format: functional, cell-based
[21] = tested on: MCF7; assay: Antitumor activity in human MCF7 cells cultured as 3D spheroids assessed as decrease in spheroid volume at 4 uM measured up to 7 days by inverted microscopic analysis; format: functional, cell-based; conditions: time <= 7.0 day
[22] = Metabolic stability in human plasma at 200 uM incubated for 24 hrs by MALDI-MS analysis; format: ADME, cell-free
[23] = tested on: B16-F10; assay: Antitumor activity against mouse B16-F10 cells implanted in C57BL/6J mouse assessed as reduction in tumor size at 5 mg/kg, ip administered for 14 days by caliper method; format: functional, organism-based; conditions: time 14.0 day
[24] = Toxicity in C57BL/6J mouse implanted with B16F10 cells assessed as change in body weight at 5 mg/kg, ip administered for 14 days; format: organism-based, B16-F10; conditions: in vivo, 336 h, time 14 day
[25] = tested on: B16-F10; assay: Antitumor activity against mouse B16F10 cells implanted in C57BL/6J mouse assessed as tumor cell damage at 5 mg/kg, ip administered for 14 days by caliper method; format: functional, organism-based; conditions: time 14.0 day
[26] = tested on: B16-F10; assay: Antitumor activity against mouse B16F10 cells implanted in C57BL/6J mouse assessed as tumor muscle damage at 5 mg/kg, ip administered for 14 days by caliper method; format: functional, organism-based; conditions: time 14.0 day
[27] = tested on: B16-F10; assay: Antitumor activity against mouse B16F10 cells implanted in C57BL/6J mouse assessed as blood vessels damage at 5 mg/kg, ip administered for 14 days by caliper method; format: functional, organism-based; conditions: time 14.0 day

Compound | Ka [2] | Kd [3] [µM] | Ka [4] [M⁻¹] | Activity [9] | Drug uptake [10] | Stability [22] | IC50 [1] [µM] | Activity [11] | Activity [12] [%] | Activity [13] [%] | Activity [14] [%] | Activity [15] [%] | Activity [16] | Activity [17] | Activity [18] | Activity [19] | Activity [20] | also measured
CC(=O)N[C@@H](Cc1ccccc1)C(=O)N[C@@H](CCCNC(=N)N)C(=O)N[C@@H](CCCNC(=N)N)C(=O)N[C@@H](CCCCN)C(=O)N[C@@H](C)C(=O)N[C@@H](Cc1ccc(F)cc1)C(=O)N[C@H]1CCC/C=C\CCC[C@@H](C(=O)NCC(=O)O)NC(=O)[C@H](Cc2ccc(O)cc2)NC(=O)[C@H](Cc2c[nH]c3ccccc23)NC(=O)[C@H](Cc2c[nH]cn2)NC1=O (Ac-FRRKA[Phe(4-F)][Nle(6-ylidene)]HWY[Nle(6-ylidene)]G-OH; staple (Z) 7-11) | 2.14 10^4/M/s | 3.6 | 45200 | Active | Active | Stable | 3.71 | Active | 12.2 | 23.5 | 58 | 6.3 | Active | Active | Active | Active | Active | inhibition [5]: Active; inhibition [6]: Active; Ka [7]: 46300 M⁻¹; Activity [8]: Active; Activity [21]: Active; Activity [23]: Active; Activity [24]: Non-Toxic; Activity [25]: Active; Activity [26]: Active; Activity [27]: Active
CC(C)C[C@H](NC(=O)[C@H](Cc1ccccc1)NC(=O)[C@H](C)NC(=O)[C@H](CCCCN)NC(=O)[C@H](CCCNC(=N)N)NC(=O)[C@H](CCCNC(=N)N)NC(=O)[C@@H](N)Cc1ccccc1)C(=O)N[C@@H](Cc1c[nH]cn1)C(=O)N[C@@H](Cc1c[nH]c2ccccc12)C(=O)N[C@@H](Cc1ccc(O)cc1)C(=O)N[C@H](C(=O)NCC(=O)O)[C@@H](C)O (H-FRRKAFLHWYTG-OH) | – | – | – | – | – | Unstable | 272 | – | – | – | – | – | – | – | – | – | – | –
C[C@H](NC(=O)[C@H](CCCCN)NC(=O)[C@H](CCCNC(=N)N)NC(=O)[C@H](CCCNC(=N)N)NC(=O)[C@@H](N)Cc1ccccc1)C(=O)N[C@@H](Cc1ccccc1)C(=O)N[C@H]1CCC/C=C\CCC[C@@H](C(=O)NCC(=O)O)NC(=O)[C@H](Cc2ccc(O)cc2)NC(=O)[C@H](Cc2c[nH]c3ccccc23)NC(=O)[C@H](Cc2c[nH]cn2)NC1=O (H-FRRKAF[Nle(6-ylidene)]HWY[Nle(6-ylidene)]G-OH; staple (Z) 7-11) | 1.43 10^4/M/s | 7 | 10500 | Active | Active | Stable | 37.2 | Active | 31.8 | 0.5 | 24.2 | 43.6 | Active | Active | Active | Active | Active | –

More lines, main results first:

Ka [2] | Kd [3] [µM] | Ka [4] [M⁻¹] | Activity [9] | Drug uptake [10] | Stability [22] | Compound | IC50 [1] [µM] | Activity [11] | Activity [12] [%] | Activity [13] [%] | Activity [14] [%] | Activity [15] [%] | Activity [16] | Activity [17] | Activity [18] | Activity [19] | Activity [20] | also measured
1.9 10^4/M/s | 4 | – | – | – | – | CC(=O)N[C@@H](Cc1ccccc1)C(=O)N[C@@H](CCCNC(=N)N)C(=O)N[C@@H](CCCNC(=N)N)C(=O)N[C@@H](CCCCN)C(=O)N[C@@H](C)C(=O)N[C@@H](Cc1ccc(Br)cc1)C(=O)N[C@H]1CCC/C=C\CCC[C@@H](C(=O)NCC(=O)O)NC(=O)[C@H](Cc2ccc(O)cc2)NC(=O)[C@H](Cc2c[nH]c3ccccc23)NC(=O)[C@H](Cc2cnc[nH]2)NC1=O (Ac-FRRKA[Phe(4-Br)][Nle(6-ylidene)]HWY[Nle(6-ylidene)]G-OH; staple (Z) 7-11) | 33.8 | – | – | – | – | – | – | – | – | – | – | –
2.05 10^4/M/s | 3.3 | – | – | – | – | CC(=O)N[C@@H](Cc1ccccc1)C(=O)N[C@@H](CCCNC(=N)N)C(=O)N[C@@H](CCCNC(=N)N)C(=O)N[C@@H](CCCCN)C(=O)N[C@@H](C)C(=O)N[C@@H](Cc1ccc(Cl)cc1)C(=O)N[C@H]1CCC/C=C\CCC[C@@H](C(=O)NCC(=O)O)NC(=O)[C@H](Cc2ccc(O)cc2)NC(=O)[C@H](Cc2c[nH]c3ccccc23)NC(=O)[C@H](Cc2cnc[nH]2)NC1=O (Ac-FRRKA[Phe(4-Cl)][Nle(6-ylidene)]HWY[Nle(6-ylidene)]G-OH; staple (Z) 7-11) | 18.7 | – | – | – | – | – | – | – | – | – | – | –
– | 4.1 | – | – | – | – | CC(=O)N[C@@H](Cc1ccccc1)C(=O)N[C@@H](CCCNC(=N)N)C(=O)N[C@@H](CCCNC(=N)N)C(=O)N[C@@H](CCCCN)C(=O)N[C@@H](C)C(=O)N[C@@H](Cc1ccc(I)cc1)C(=O)N[C@H]1CCC/C=C\CCC[C@@H](C(=O)NCC(=O)O)NC(=O)[C@H](Cc2ccc(O)cc2)NC(=O)[C@H](Cc2c[nH]c3ccccc23)NC(=O)[C@H](Cc2cnc[nH]2)NC1=O (Ac-FRRKA[Phe(4-I)][Nle(6-ylidene)]HWY[Nle(6-ylidene)]G-OH; staple (Z) 7-11) | 52.3 | – | – | – | – | – | – | – | – | – | – | –
